According to the NIST ThermoML archive (doi:10.1021/je100734t):
Numbers after ± are expanded uncertainties.

Experiment: xn = mol fraction of the nth substance listed
Conditions: 101 kPa, Liquid; for speed of sound: Pulse-echo method

CCCCCCCCCO [nonan-1-ol] + CCc1ccccc1
Conditions	mass density, 293.15 K [kg/m3]	mass density, 303.15 K [kg/m3]	mass density, 313.15 K [kg/m3]	speed of sound, 293.15 K [m/s]	speed of sound, 303.15 K [m/s]	speed of sound, 313.15 K [m/s]
x2 = 0	827.7 ± 0.43	820.82 ± 0.44	813.88 ± 0.45	1381 ± 2	1347 ± 2	1314 ± 2
x2 = 0.0611	829.32 ± 0.42	822.34 ± 0.43	815.3 ± 0.45	1378 ± 2	1343 ± 2	1309 ± 2
x2 = 0.1285	831.14 ± 0.42	824.06 ± 0.43	816.91 ± 0.44	1374 ± 2	1338 ± 2	1304 ± 2
x2 = 0.1791	832.56 ± 0.42	825.4 ± 0.43	818.16 ± 0.44	1371 ± 2	1335 ± 2	1300 ± 2
x2 = 0.2466	834.5 ± 0.41	827.23 ± 0.42	819.87 ± 0.43	1366 ± 2	1330 ± 2	1294 ± 2
x2 = 0.3151	836.57 ± 0.41	829.17 ± 0.42	821.69 ± 0.43	1362 ± 2	1324 ± 2	1288 ± 2
x2 = 0.3717	838.35 ± 0.4	830.85 ± 0.41	823.26 ± 0.43	1358 ± 2	1320 ± 2	1283 ± 2
x2 = 0.4254	840.12 ± 0.4	832.51 ± 0.41	824.82 ± 0.42	1354 ± 2	1316 ± 2	1279 ± 2
x2 = 0.5007	842.74 ± 0.39	834.99 ± 0.41	827.14 ± 0.42	1349 ± 2	1311 ± 2	1273 ± 2
x2 = 0.5756	845.55 ± 0.39	837.63 ± 0.4	829.63 ± 0.41	1345 ± 2	1306 ± 2	1267 ± 2
x2 = 0.6411	848.19 ± 0.38	840.11 ± 0.39	831.97 ± 0.41	1341 ± 2	1302 ± 2	1263 ± 2
x2 = 0.7122	851.28 ± 0.38	843.05 ± 0.39	834.74 ± 0.4	1339 ± 2	1298 ± 2	1259 ± 2
x2 = 0.7798	854.46 ± 0.37	846.08 ± 0.38	837.59 ± 0.4	1337 ± 2	1296 ± 2	1257 ± 2
x2 = 0.8557	858.37 ± 0.36	849.81 ± 0.38	841.14 ± 0.39	1336 ± 2	1295 ± 2	1255 ± 2
x2 = 0.9341	862.85 ± 0.36	854.1 ± 0.37	845.28 ± 0.38	1338 ± 2	1295 ± 2	1254 ± 2

CCCCCCCCCO [nonan-1-ol] + Cc1cccc(C)c1
Conditions	mass density, 293.15 K [kg/m3]	mass density, 303.15 K [kg/m3]	mass density, 313.15 K [kg/m3]	speed of sound, 293.15 K [m/s]	speed of sound, 303.15 K [m/s]	speed of sound, 313.15 K [m/s]
x2 = 0	827.7 ± 0.43	820.82 ± 0.44	813.88 ± 0.45	1381 ± 2	1347 ± 2	1314 ± 2
x2 = 0.066	829.52 ± 0.43	822.53 ± 0.44	815.47 ± 0.45	1378 ± 2	1343 ± 2	1310 ± 2
x2 = 0.127	831.23 ± 0.43	824.14 ± 0.44	816.98 ± 0.45	1375 ± 2	1340 ± 2	1306 ± 2
x2 = 0.1739	832.57 ± 0.43	825.39 ± 0.44	818.16 ± 0.45	1373 ± 2	1337 ± 2	1302 ± 2
x2 = 0.2461	834.67 ± 0.44	827.36 ± 0.45	820.01 ± 0.46	1368 ± 2	1332 ± 2	1297 ± 2
x2 = 0.2913	836.03 ± 0.44	828.63 ± 0.45	821.21 ± 0.46	1365 ± 2	1328 ± 2	1293 ± 2
x2 = 0.3635	838.25 ± 0.44	830.72 ± 0.45	823.17 ± 0.46	1361 ± 2	1323 ± 2	1287 ± 2
x2 = 0.4422	840.77 ± 0.45	833.1 ± 0.46	825.42 ± 0.47	1355 ± 2	1317 ± 2	1281 ± 2
x2 = 0.4872	842.27 ± 0.45	834.52 ± 0.46	826.76 ± 0.47	1353 ± 2	1314 ± 2	1277 ± 2
x2 = 0.5648	844.95 ± 0.45	837.08 ± 0.46	829.18 ± 0.48	1348 ± 2	1309 ± 2	1272 ± 2
x2 = 0.6251	847.15 ± 0.46	839.19 ± 0.47	831.18 ± 0.48	1345 ± 2	1305 ± 2	1268 ± 2
x2 = 0.6873	849.54 ± 0.46	841.47 ± 0.47	833.35 ± 0.48	1342 ± 2	1302 ± 2	1264 ± 2
x2 = 0.7713	853 ± 0.47	844.78 ± 0.48	836.5 ± 0.49	1339 ± 2	1299 ± 2	1260 ± 2
x2 = 0.8507	856.56 ± 0.47	848.19 ± 0.48	839.76 ± 0.5	1338 ± 2	1298 ± 2	1258 ± 2
x2 = 0.9284	860.34 ± 0.48	851.84 ± 0.49	843.28 ± 0.5	1339 ± 2	1298 ± 2	1257 ± 2
